# According to ChEMBL document CHEMBL1201862, “PubChem BioAssay data set” (2004):
# Activity calls are given as the source filed them. Cut-off read from the data, not from the text of the source, for most assays here: actives have a measured EC50 and inactives only a lower limit.
# Legend:
# [1] = viability of uninfected HEp-2 cells – cell-based, HTS, cytotoxicity control for RSV inhibitor project, dose response (AID 2410); assay type: functional; conditions: human respiratory syncytial virus
# [2] = molecular target: T1, Heat shock factor protein 1 (Mus musculus, UniProt P38532); assay: decrease of HSF1-responsive luciferase luminescence – cell-based, NIH3T3, dose retest, confirmation (AID 2382); assay type: functional;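 note: NIH3T3 fibroblasts with HSF1-driven luciferase reporter stressed by proteasome inhibitor MG132; luminescence from HSF1-driven luciferase expression after 8 hours of MG132 stress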
# T1 sequence (P38532 whole entry): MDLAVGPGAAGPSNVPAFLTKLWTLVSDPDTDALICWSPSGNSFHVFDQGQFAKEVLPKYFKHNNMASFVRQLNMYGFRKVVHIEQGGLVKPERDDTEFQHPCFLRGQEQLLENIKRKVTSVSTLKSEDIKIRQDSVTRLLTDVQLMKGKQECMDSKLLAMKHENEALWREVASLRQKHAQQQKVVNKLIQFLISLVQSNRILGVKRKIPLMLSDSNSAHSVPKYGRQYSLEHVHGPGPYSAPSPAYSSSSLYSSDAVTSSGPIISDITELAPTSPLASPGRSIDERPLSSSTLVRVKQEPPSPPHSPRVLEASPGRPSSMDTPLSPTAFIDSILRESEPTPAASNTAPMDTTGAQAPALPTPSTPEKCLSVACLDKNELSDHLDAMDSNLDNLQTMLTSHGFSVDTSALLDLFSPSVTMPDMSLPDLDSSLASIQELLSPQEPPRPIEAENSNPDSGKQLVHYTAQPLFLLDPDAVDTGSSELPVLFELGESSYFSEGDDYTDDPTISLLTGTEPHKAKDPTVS
# [3] = alpha-synuclein stem-loop luciferase translation blockers – H4 neuroglioma cells, luminescence, confirmation (AID 1988); assay type: functional, cell-based
# [4] = Luminescence Cell-Based Dose Response HTS to Identify Inhibitors of 5'UTR Stem-Loop Driven Prion Protein mRNA Translation in H4 Neuroglioblastoma Cells. [Related pubchem assays: 1827 (Project Summary), 1813 (Primary HTS)]; assay type: functional
# [5] = luciferase reporter signal suppression in cells – H4 neuroglioma cells, luminescence, dose response (AID 1990); assay type: functional, cell-based
# [6] = NIH-3T3 fibroblast cytotoxicity, dose response, cytotoxicity control, cell-based, fluorescence, Alamar Blue, secondary assay (AID 2327); assay type: functional;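 note: NIH-3T3 mouse fibroblasts cultured with fluconazole at 8 µg/mL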
# [7] = microbe, parasite or virus in culture; assay type: functional; conditions: Mycobacterium tuberculosis
# H4 = assay: Luminescence Cell-Based Dose Response HTS to Identify Activators of 5'UTR Stem-Loop Driven Prion Protein mRNA Translation in H4 Neuroglioblastoma Cells. [Related pubchem assays: 1829 (Project Summary), 1814 (Primary HTS)]; assay type: functional; conditions: Homo sapiens
# [8] = Luminescence Cell-Based Dose Response HTS to Identify Activators of Luciferase Translation or Activity in H4 […] Cells. [Related pubchem assays: 1829 (Project Summary), 1814 (Primary HTS)]; assay type: functional
# [9] = Luminescence Cell-Based Dose Confirmation HTS to Identify Activators of 5'UTR Stem-Loop Driven Alpha-Synuclein mRNA Translation in H4 Neuroglioblastoma Cells. [Related pubchem assays: 1829 (Project Summary), 1814 (Primary HTS)]; assay type: functional
# Streptokinase A = molecular target: T2, Streptokinase A (Streptococcus pyogenes serotype M1, UniProt P10520); assay: viability-normalized secreted streptokinase activity reduction – plasminogen activation absorbance, OD405, dose response (AID 1914); assay type: functional, Streptococcus pyogenes M1 GAS;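 note: secreted streptokinase activity via plasminogen activation per viability signal from cell pellet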
# T2 sequence (P10520 whole entry): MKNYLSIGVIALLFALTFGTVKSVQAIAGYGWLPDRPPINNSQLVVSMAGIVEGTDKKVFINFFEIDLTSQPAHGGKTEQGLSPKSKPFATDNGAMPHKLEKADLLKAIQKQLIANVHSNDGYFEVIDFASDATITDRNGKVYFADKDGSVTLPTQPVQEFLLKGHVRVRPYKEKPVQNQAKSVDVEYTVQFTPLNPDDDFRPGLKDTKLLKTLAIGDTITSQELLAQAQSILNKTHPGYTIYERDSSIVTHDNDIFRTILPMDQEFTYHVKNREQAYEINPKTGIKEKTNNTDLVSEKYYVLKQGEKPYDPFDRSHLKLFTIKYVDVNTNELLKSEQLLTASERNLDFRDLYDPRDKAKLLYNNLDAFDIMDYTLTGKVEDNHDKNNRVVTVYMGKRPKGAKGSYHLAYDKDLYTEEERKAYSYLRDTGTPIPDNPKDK
# Streptococcus = assay: GAS UMAA2166 growth inhibition – luminescence, BacTiterGlo, counter-screen for streptokinase expression inhibitor project, dose response (AID 1915); assay type: functional, organism-based;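 note: potency for reduction of bacterial viability or growth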
# [10] = test system: Streptococcus sp. 'group A'; assay: Streptococcus pyogenes SK(-)GAS viability under kanamycin – luminescence, BacTiterGlo, confirmation, counter-screen for streptokinase expression inhibitor project, dose response (AID 1900); assay type: functional, organism-based
# [11] = molecular target: T3, Corticotropin-releasing factor receptor 2/Corticotropin-releasing factor-binding protein (Homo sapiens, UniProt P24387+Q13324); assay: activators of CRF receptor 2 with binding protein – uHTS hits, confirmation (AID 602473); assay type: functional; conditions: read-out: EC50_Mean
# T3 sequence (Q13324 whole entry): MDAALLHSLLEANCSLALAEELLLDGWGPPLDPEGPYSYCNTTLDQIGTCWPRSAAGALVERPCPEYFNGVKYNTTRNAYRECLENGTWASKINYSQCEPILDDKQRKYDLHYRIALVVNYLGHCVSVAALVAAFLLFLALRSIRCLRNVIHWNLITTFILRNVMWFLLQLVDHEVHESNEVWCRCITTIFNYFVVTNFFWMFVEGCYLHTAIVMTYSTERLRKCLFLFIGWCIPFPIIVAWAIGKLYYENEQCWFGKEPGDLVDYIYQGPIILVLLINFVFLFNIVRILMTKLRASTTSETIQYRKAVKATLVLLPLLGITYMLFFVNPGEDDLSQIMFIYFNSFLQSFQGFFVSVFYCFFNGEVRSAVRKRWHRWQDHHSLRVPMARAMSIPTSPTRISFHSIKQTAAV
# T3 sequence (P24387 whole entry): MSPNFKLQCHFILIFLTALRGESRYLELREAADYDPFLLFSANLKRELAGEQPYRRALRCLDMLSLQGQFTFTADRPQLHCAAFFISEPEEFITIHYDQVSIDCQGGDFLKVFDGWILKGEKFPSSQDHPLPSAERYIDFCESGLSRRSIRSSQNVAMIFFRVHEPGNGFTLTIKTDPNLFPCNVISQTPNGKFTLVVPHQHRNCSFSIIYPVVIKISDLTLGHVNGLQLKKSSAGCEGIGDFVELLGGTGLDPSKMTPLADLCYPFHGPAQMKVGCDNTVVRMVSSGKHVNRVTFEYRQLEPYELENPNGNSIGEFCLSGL
smiles,measurement,setting,value
C#CCN1C(C)=C(C(=O)OC)C(c2cccc([N+](=O)[O-])c2)C(C(=O)OCC)=C1C (stereo not given),CC50,[1],24.8 µM (active)
OC(COc1c(F)cc(Br)cc1F)CN1CCN(c2ccc(F)cc2)CC1 (stereo not given),EC50,[2],> 195 µM (not active)
CCCCn1cc(S(=O)(=O)c2ccccc2)c(=O)c2cc(C)ccc21,EC50,[2],> 195 µM (not active)
COc1nc(-c2ccccc2)cc(-c2ccc3c(c2)OCO3)c1C#N,EC50,[3],3.63 µM (active)
same,EC50,[4],27.6 µM (active)
same,EC50,[5],11.2 µM (inconclusive)
CSc1c(CC(=O)Nc2ccccc2)n(C)c2ccccc12,EC50,[3],0.344 µM (inconclusive)
same,EC50,[4],> 120 µM (not active)
same,EC50,[5],> 120 µM (not active)
Nc1n[nH]c(-c2cccc([N+](=O)[O-])c2)n1,EC50,[6],> 150 µM (inactive)
CCOC(=O)Cc1csc(NC(=O)c2ccc(S(=O)(=O)N3CCCCC3)cc2)n1,CC50,[1],11.5 µM (active)
CCOc1cc(-c2c(C#N)c(O)nc3c2c(C)nn3-c2ccc(F)cc2)ccc1O,CC50,[7],> 40 µM (active)
COc1cccc(N2CCN(CC(=O)c3c[nH]c4ccc(OC)cc34)CC2C)c1 (stereo not given),CC50,[1],38.1 µM (active)
COc1cc(C(C)=O)ccc1OCc1cc(C(=O)N(C)CCC2CCCCO2)no1 (stereo not given),EC50,H4,7.86 µM (active)
same,EC50,[8],80.8 µM (active)
same,EC50,[9],0.831 µM (active)
O=C(c1ccccc1Cl)N1N=C(c2ccc(Br)cc2)CC1c1nc2ccccc2[nH]1 (stereo not given),CC50,[1],14.3 µM (active)
Cc1c(Cl)ccc2c(C(=O)NC(C)c3ccncc3)cc(-c3ccncc3)nc12 (stereo not given),CC50,[1],25.1 µM (active)
CCOC(=O)C1CCCN(Cc2cc(=O)oc3cc(C)c(C(C)C)cc23)C1 (stereo not given),CC50,[1],31.3 µM (active)
COc1ccc(OC)c(NC(=O)CSCC(=O)O)c1,EC50,[2],> 195 µM (not active)
CCN(CC)C(=S)SCC(=O)Nc1nc(=O)c2ccccc2s1,EC50,[2],> 195 µM (not active)
CN(Cc1ccsc1)C(=O)Cn1cc(Br)ccc1=O,EC50,H4,31.7 µM (active)
same,EC50,[8],8.64 µM (active)
same,EC50,[9],> 120 µM (not active)
Cn1c(NCC(O)c2ccccc2)nc2c1c(=O)n(Cc1ccc(Cl)c(Cl)c1)c(=O)n2C (stereo not given),CC50,[7],25.5 µM (active)
CSCCC1NC(=O)N(CC(=O)N2N=C(c3ccc(Cl)cc3)CC2c2ccco2)C1=O (stereo not given),CC50,[7],> 40 µM (active)
COc1ccc(NC(C)C(=O)Nc2ccc(C(C)(C)C)cc2)cc1Cl (stereo not given),CC50,[7],> 40 µM (active)
CC(=O)O[C@H]1CC[C@@]2(C)[C@@H](CC[C@@H]3[C@@H]2CC[C@]2(C)[C@@H](C(C)(C)O)C[C@@H]32)C1,CC50,[1],36.9 µM (active)
CCC(=O)c1ccc(OCC(O)CN2CCN(c3cccc(C(F)(F)F)c3)CC2)cc1 (stereo not given),CC50,[7],> 40 µM (active)
OCCCNc1nc(-c2ccc(Cl)cc2)nc2ccccc12,CC50,[1],> 50 µM (active)
Cc1ccc(N(CC(=O)NCCSc2nc3ccccc3s2)S(=O)(=O)c2ccccc2)c(C)c1,EC50,[3],14.8 µM (active)
same,EC50,[4],> 120 µM (not active)
same,EC50,[5],> 120 µM (not active)
COc1cc(CN(C2CCCCC2C)S(=O)(=O)c2ccc(S(=O)(=O)NC3CC3)cc2)cc(OC)c1OC (stereo not given),EC50,[3],> 120 µM (not active)
same,EC50,[4],> 120 µM (not active)
same,EC50,[5],103 µM (active)
Cc1[nH]c2ccc(C(=O)OC(C)C(=O)NC3CCCCC3C)cc2c1C (stereo not given),CC50,[1],12.1 µM (active)
Cc1c(C(=O)Nc2nnc(C(F)(F)F)s2)oc2ccccc12,EC50,H4,72.7 µM (active)
same,EC50,[8],6.63 µM (active)
same,EC50,[9],3.22 µM (active)
CCOC(=O)C1(C)NC(c2ccc(O)cc2)C2C(=O)N(c3ccccc3)C(=O)C21 (stereo not given),EC50,[2],93.8 µM (active)
O=C(NCc1ccncc1)C(=O)Nc1nc(C23CC4CC(CC(C4)C2)C3)cs1,EC50,[2],> 195 µM (not active)
Cc1ccc(-c2nnc(SCC#CCOC(=O)c3cccs3)o2)cc1,EC50,H4,13.8 µM (active)
same,EC50,[8],37.3 µM (active)
same,EC50,[9],8.34 µM (active)
Cn1c(-c2ccsc2)c(-c2cccs2)c2cc(-c3cccc4[nH]ccc34)ccc21,CC50,[1],32.1 µM (active)
COc1ccc2nc(-n3c(C)ccc3C)sc2c1,EC50,H4,60.8 µM (active)
same,EC50,[8],8.93 µM (active)
same,EC50,Streptokinase A,> 150 µM (not active)
same,EC50,Streptococcus,> 150 µM (not active)
same,EC50,[9],38 µM (active)
same,EC50,[10],> 150 µM (not active)
CCCCc1c(C)nn(-c2nnc3c4ccccc4n(CC)c3n2)c1C,CC50,[1],5.26 µM (active)
same,EC50,Streptokinase A,> 150 µM (not active)
same,EC50,Streptococcus,> 150 µM (not active)
same,EC50,[10],4.61 µM (active)
O=C(Nc1ccc(Oc2cccc(C(F)(F)F)c2)nc1)c1cccs1,CC50,[7],> 40 µM (active)
Cc1ccccc1C1=Nc2c(c(=O)n(C)c(=O)n2C)C(C(F)(F)F)(C(F)(F)F)N1,CC50,[1],> 50 µM (active)
COC(=O)c1cnc(Oc2ccc(NC(=O)NC(=O)c3c(OC)cccc3OC)cc2)cc1C(F)(F)F,EC50,[3],0.111 µM (active)
same,EC50,[4],0.142 µM (active)
same,EC50,[5],0.293 µM (active)
COc1ccccc1C(CNC(=O)C(C)(C)Oc1ccc(Cl)cc1)N1CCCC1 (stereo not given),CC50,[7],> 40 µM (active)
O=C(COC(=O)C1(c2ccccc2F)CCCC1)N1CCc2ccccc21,EC50,[2],> 195 µM (not active)
O=C(Nc1cccc(-c2cn3c(n2)SCC3)c1)c1ccc(Br)o1,EC50,[6],> 150 µM (inconclusive)
CCOc1cc(-c2cc(-c3ccc(C)cc3)nc(N)c2C#N)ccc1O,EC50,[3],10.7 µM (active)
same,EC50,[4],> 120 µM (not active)
same,EC50,[5],14.7 µM (active)
CN(C)c1ccc(N=Nc2ccc(C(=O)O)cc2)cc1,EC50,[2],1.68 µM (active)
same,EC50,[4],11.8 µM (active)
COCC1CCN(Cc2nc(-c3ccc4c(c3)OCO4)no2)C1 (stereo not given),EC50,H4,45 µM (active)
same,EC50,[8],13.1 µM (active)
same,EC50,[11],> 53 µM (inactive)
same,EC50,[9],10.1 µM (active)
Cc1ccc(/C=N\NC(=O)Cc2noc3ccccc23)cc1,EC50,[2],> 195 µM (not active)
C/C(=N\NC(=O)c1nnn(-c2nonc2N)c1C(C)C)c1ccncc1,EC50,[2],> 195 µM (not active)
